{
  "source": "patent US8835461B2",
  "about": "“Substituted 3-hydroxy-4-pyridone derivative” (priority 2009, dated 2014)",
  "molecular_target": "Cap-dependent endonuclease (CEN); RNP fraction containing PB1•PB2•PA complex (Influenza A virus, UniProt P15659)",
  "experiment": "Measurement of cap-dependent endonuclease (CEN) inhibitory activity",
  "format": "biochemical, influenza A/WSN/33 virus",
  "key": {"[1]": {"conditions": "RNP enzyme from A/WSN/33 virus, capped Cy3/BHQ2-labelled 30mer RNA substrate, 60 minutes at room temperature, read-out: CEN IC50"}, "[2]": {"conditions": "statement in text following Table 36, same CEN assay, read-out: IC50 (CEN)"}},
  "note": "Like-named read-outs stand apart in the source and are kept apart here.",
  "data": [
    {"compound": "O=C(O)c1cn(Cc2ccccc2-c2ccccc2)cc(O)c1=O", "note": "[Example 10]", "values": [
      {"measurement": "IC50", "setting": "[1]", "value": 219, "unit": "nM"}
    ]},
    {"compound": "O=C(O)c1cn(CC2CCCC2)cc(O)c1=O", "note": "[Example 18]", "values": [
      {"measurement": "IC50", "setting": "[1]", "value": 845, "unit": "nM"}
    ]},
    {"compound": "CC(=O)c1ccc(-c2ccccc2Cn2cc(O)c(=O)c(C(=O)O)c2)cc1", "note": "[Example 22]", "values": [
      {"measurement": "IC50", "setting": "[1]", "value": 217, "unit": "nM"}
    ]},
    {"compound": "COc1ncc(-c2ccccc2Cn2cc(O)c(=O)c(C(=O)O)c2)cn1", "note": "[Example 46]", "values": [
      {"measurement": "IC50", "setting": "[1]", "value": 325, "unit": "nM"}
    ]},
    {"compound": "O=C(O)c1cn(Cc2ccccc2-c2ccc(NCC3CCCCC3)nc2)cc(O)c1=O", "note": "[Example 52]", "values": [
      {"measurement": "IC50", "setting": "[1]", "value": 459, "unit": "nM"}
    ]},
    {"compound": "O=C(O)c1cn(C[C@@H]2CCCN2c2ccccc2)cc(O)c1=O", "note": "[Example 57]", "values": [
      {"measurement": "IC50", "setting": "[1]", "value": 426, "unit": "nM"}
    ]},
    {"compound": "O=C(O)c1cn(CC2(c3ccccc3)CCCC2)cc(O)c1=O", "note": "[Example 112]", "values": [
      {"measurement": "IC50", "setting": "[1]", "value": 61, "unit": "nM"}
    ]},
    {"compound": "N#Cc1ccccc1CN1CCCCC1Cn1cc(O)c(=O)c(C(=O)O)c1", "note": "(stereo not drawn) [Example 116]", "values": [
      {"measurement": "IC50", "setting": "[1]", "value": 221, "unit": "nM"}
    ]},
    {"compound": "O=C(O)c1cn(CC2CCCCN2C(=O)OCc2ccccc2F)cc(O)c1=O", "note": "(stereo not drawn) [Example 127]", "values": [
      {"measurement": "IC50", "setting": "[1]", "value": 313, "unit": "nM"}
    ]},
    {"compound": "O=C(O)c1cn(CC2(c3cccc(C(F)(F)F)c3)CCCC2)cc(O)c1=O", "note": "[Example 167]", "values": [
      {"measurement": "IC50", "setting": "[1]", "value": 12, "unit": "nM"}
    ]},
    {"compound": "O=C(O)c1cn(CC2(c3ccc4c(c3)OCO4)CCCC2)cc(O)c1=O", "note": "[Example 171]", "values": [
      {"measurement": "IC50", "setting": "[1]", "value": 16, "unit": "nM"}
    ]},
    {"compound": "O=C(O)c1cn(CC2(c3nc4ccccc4s3)CCCC2)cc(O)c1=O", "note": "[Example 173]", "values": [
      {"measurement": "IC50", "setting": "[1]", "value": 47, "unit": "nM"}
    ]},
    {"compound": "O=C(O)c1cn(CC2(c3ccccn3)CCCC2)cc(O)c1=O", "note": "[Example 177]", "values": [
      {"measurement": "IC50", "setting": "[1]", "value": 110, "unit": "nM"}
    ]},
    {"compound": "O=C(O)c1cn(CC2(c3cccc4ccccc34)CCCC2)cc(O)c1=O", "note": "[Example 178]", "values": [
      {"measurement": "IC50", "setting": "[1]", "value": 28, "unit": "nM"}
    ]},
    {"compound": "O=C(O)c1cn(CC2(c3ccccc3)Cc3ccccc3C2)cc(O)c1=O", "note": "[Example 182]", "values": [
      {"measurement": "IC50", "setting": "[1]", "value": 278, "unit": "nM"}
    ]},
    {"compound": "O=C(O)c1cn(CC2(c3ccccc3)CCOCC2)cc(O)c1=O", "note": "[Example 183]", "values": [
      {"measurement": "IC50", "setting": "[1]", "value": 177, "unit": "nM"}
    ]},
    {"compound": "O=C(O)c1cn(CC2(n3ccc4cccnc43)CCCC2)cc(O)c1=O", "note": "[Example 185]", "values": [
      {"measurement": "IC50", "setting": "[1]", "value": 5, "unit": "nM"}
    ]},
    {"compound": "O=C(O)c1cn(CC2(n3ccc4ccccc43)CCCC2)cc(O)c1=O", "note": "[Example 186]", "values": [
      {"measurement": "IC50", "setting": "[1]", "value": 35, "unit": "nM"}
    ]},
    {"compound": "O=C(NS(=O)(=O)C1CC1)c1cn(Cc2ccccc2-c2ccccc2)cc(O)c1=O", "note": "[Example 195]", "values": [
      {"measurement": "IC50", "setting": "[1]", "value": 677, "unit": "nM"}
    ]},
    {"compound": "CCCCS(=O)(=O)NC(=O)c1cn(Cc2ccccc2-c2ccccc2)cc(O)c1=O", "note": "[Example 197]", "values": [
      {"measurement": "IC50", "setting": "[1]", "value": 531, "unit": "nM"}
    ]},
    {"compound": "O=c1c(O)cn(Cc2ccccc2-c2ccc(F)c(Cl)c2)cc1O", "note": "[Example 222]", "values": [
      {"measurement": "IC50", "setting": "[1]", "value": 513, "unit": "nM"}
    ]},
    {"compound": "O=C(O)c1cn(Cc2cccn2-c2ccccc2)cc(O)c1=O", "note": "[Example 226]", "values": [
      {"measurement": "IC50", "setting": "[2]", "value": "≤ 1000", "unit": "nM"}
    ]},
    {"compound": "CC(C)(Cn1cc(O)c(=O)c(C(=O)O)c1)c1ccccc1", "note": "[Example 227]", "values": [
      {"measurement": "IC50", "setting": "[2]", "value": "≤ 1000", "unit": "nM"}
    ]},
    {"compound": "O=C(O)c1cn(CC2(C(=O)c3ccccc3)CCCC2)cc(O)c1=O", "note": "[Example 231]", "values": [
      {"measurement": "IC50", "setting": "[2]", "value": "≤ 1000", "unit": "nM"}
    ]},
    {"compound": "O=C(O)c1cn(CC2(C(=O)Nc3ccccc3)CCCC2)cc(O)c1=O", "note": "[Example 232]", "values": [
      {"measurement": "IC50", "setting": "[2]", "value": "≤ 1000", "unit": "nM"}
    ]},
    {"compound": "O=c1c(O)cn(CC2(c3cccc(F)c3)CCCC2)cc1-c1nnn[nH]1", "note": "[Example 233]", "values": [
      {"measurement": "IC50", "setting": "[2]", "value": "≤ 1000", "unit": "nM"}
    ]},
    {"compound": "O=C(O)c1cn(CC2(c3cccc(N4CCCC4=O)c3)CCCC2)cc(O)c1=O", "note": "[Example 234]", "values": [
      {"measurement": "IC50", "setting": "[2]", "value": "≤ 1000", "unit": "nM"}
    ]},
    {"compound": "O=C(O)c1cn(CC2(c3cccc(N4CCCCC4=O)c3)CCCC2)cc(O)c1=O", "note": "[Example 235]", "values": [
      {"measurement": "IC50", "setting": "[2]", "value": "≤ 1000", "unit": "nM"}
    ]},
    {"compound": "O=C(O)c1cn(CC2(c3cccc(N4CCCS4(=O)=O)c3)CCCC2)cc(O)c1=O", "note": "[Example 236]", "values": [
      {"measurement": "IC50", "setting": "[2]", "value": "≤ 1000", "unit": "nM"}
    ]},
    {"compound": "O=C(O)c1cn(CC2(c3ccnc(-n4cccn4)c3)CCCC2)cc(O)c1=O", "note": "[Example 238]", "values": [
      {"measurement": "IC50", "setting": "[2]", "value": "≤ 1000", "unit": "nM"}
    ]},
    {"compound": "O=C(O)c1cn(CC2(c3ccnc(NCC4CCCCC4)c3)CCCC2)cc(O)c1=O", "note": "[Example 239]", "values": [
      {"measurement": "IC50", "setting": "[2]", "value": "≤ 1000", "unit": "nM"}
    ]},
    {"compound": "O=C(O)c1cn(CC2(n3ccc4cc(Cl)cnc43)CCCC2)cc(O)c1=O", "note": "[Example 240]", "values": [
      {"measurement": "IC50", "setting": "[2]", "value": "≤ 1000", "unit": "nM"}
    ]},
    {"compound": "Cn1cc(C2(Cn3cc(O)c(=O)c(C(=O)O)c3)CCCC2)c2ncccc21", "note": "[Example 242]", "values": [
      {"measurement": "IC50", "setting": "[2]", "value": "≤ 1000", "unit": "nM"}
    ]},
    {"compound": "O=C(O)c1cn(CC2(n3cc(C(F)(F)F)c4cccnc43)CCCC2)cc(O)c1=O", "note": "[Example 243]", "values": [
      {"measurement": "IC50", "setting": "[2]", "value": "≤ 1000", "unit": "nM"}
    ]},
    {"compound": "Cn1cc(C2(Cn3cc(O)c(=O)c(C(=O)O)c3)CCCC2)c2ccccc21", "note": "[Example 244]", "values": [
      {"measurement": "IC50", "setting": "[2]", "value": "≤ 1000", "unit": "nM"}
    ]},
    {"compound": "Cn1cc(C2(Cn3cc(O)c(=O)c(C(=O)NS(C)(=O)=O)c3)CCCC2)c2ccccc21", "note": "[Example 246]", "values": [
      {"measurement": "IC50", "setting": "[2]", "value": "≤ 1000", "unit": "nM"}
    ]}
  ]
}
